{
  "source": "patent US20120225933A1",
  "about": "“REGULATED EXPRESSION SYSTEMS” (priority 2009, published 2012)",
  "test": "Toxicity of the inducer doxycycline in mice",
  "format": "in vivo, BALB/c mice",
  "conditions": "200 mg/kg dox i.p.; also seen in control mice without vector",
  "description": "In view of the fact that the luciferase activity levels obtained in the induced state were very low, the decision was made to increase the dose of inducer. To this end, two consecutive doses of 100 and 200 mg/kg of dox were administered by i.p. route, separated by a 14-day period.\nThe luciferase activity in the hepatic area was measured at 24 hours post-induction. […] These symptoms were also observed in the control mice, those without a vector. The system's maximum rate of induction is reached at a dose of 100 mg/kg of dox, and is approximately 10-fold.",
  "data": [
    {"smiles": "C[C@H]1c2cccc(O)c2C(=O)C2=C(O)[C@]3(O)C(=O)C(C(N)=O)=C(O)[C@@H](N(C)C)[C@@H]3[C@@H](O)[C@@H]21", "note": "[dox, doxycycline]", "values": [
      {"measurement": "dox-mediated toxicity", "result": "several mice died"}
    ]}
  ]
}
